Laboratory results published in the C3SDB collision cross section collection.

Conditions: instrument: DT, stepped-field

collision cross section (N2) ([M+H]+) [Å²]	collision cross section (N2) ([M+Na]+) [Å²]	collision cross section (N2) ([M+2Na-H]+) [Å²]	SMILES	other results
–	–	289.33	CCCCC/C=C\C/C=C\CCCCCCCC(=O)O[C@H](COCCCCCCCCCCCCCCCCCCCC)COP(=O)(O)OCCN [PE(o38:02)]	–
–	285.81	–	CCCCC/C=C\C/C=C\CCCCCCCCCCCC(=O)O[C@H](COC(=O)CCCCCCCCCCCC)COP(=O)([O-])OCC[N+](C)(C)C [PC(35:02)]	–
–	270.85	271.58	CCCCC/C=C\C/C=C\C/C=C\CCCCC(=O)O[C@H](COCCCCCCCCCCCCCCCC)COP(=O)(O)OCCN [PE(o34:03)]	–
275.18	–	–	CCCCCCCCCCCCC=CC[C@@H](O)[C@H](CO)NC(=O)CC=CCC=CCCCCCCCCCCCCCCCCC [Cer(42:03)]	collision cross section (N2) ([M+H-H2O]+): 271.44 Å²
301.43	300.53	–	CCCCCCCCCCCCC=CC[C@@H](O)[C@H](COP(=O)([O-])OCC[N+](C)(C)C)NC(=O)CC=CCCCCCCCCCCCCCCCCCCCC [SM(42:02)]	collision cross section (N2) ([M+Cl]-): 304.71 Å²; collision cross section (N2) ([M+HCOO]-): 305.63 Å²; collision cross section (N2) ([M+Na-H2O]+): 301.19 Å²
295.85	294.58	–	CCCCCCCCCCCCC=CC[C@@H](O)[C@H](COP(=O)([O-])OCC[N+](C)(C)C)NC(=O)CCCCCCCCCCCCCCCCCCCC [SM(39:01)]	–
–	294.42	–	CC/C=C/C=C\C=C/C=C\C=C/C=C\CCCCCCCC(=O)O[C@H](COC(=O)CCCCCCCCCCCCCCCCC)COP(=O)([O-])OCC[N+](C)(C)C [PC(40:06)]	–
–	303.93	–	CCCCCCCCCCCCC=CC[C@@H](O)[C@H](CO[C@@H]1O[C@H](CO)[C@@H](O)C(O)C1O)NC(=O)CC=CCC=CCCCCCCCCCCCCCCCCCCC (some centres not stated) [GlcCer(44:03)]	–
–	283.24	287.42	CCCCC/C=C\C/C=C\C/C=C\CCCCC(=O)O[C@H](COCCCCCCCCCCCCCCCCCCCC)COP(=O)(O)OCCN [PE(o38:03)]	–
297.81	–	–	CCCCCCCCCCCCC=CC[C@@H](O)[C@H](COP(=O)([O-])OCC[N+](C)(C)C)NC(=O)CC=CCC=CCC=CCCCCCCCCCCCCCC [SM(42:04)]	–
268.45	273.06	273.28	CCCCC/C=C\C/C=C\CCCCCCCCCCCC(=O)O[C@H](COC(=O)CCCCCCCCCCC)COP(=O)(O)OCCN [PE(34:02)]	collision cross section (N2) ([M+K]+): 274.83 Å²; collision cross section (N2) ([M-H]-): 265.55 Å²
276.77	–	–	CCCCCCCCCCCCC=CC[C@@H](O)[C@H](CO)NC(=O)CC=CCCCCCCCCCCCCCCCCCCCC [Cer(42:02)]	collision cross section (N2) ([M+H-2H2O]+): 271.35 Å²; collision cross section (N2) ([M+H-H2O]+): 273.26 Å²
302.04	302.4	–	CCCCCCCCCCCCC=CC[C@@H](O)[C@H](CO[C@@H]1O[C@H](CO)[C@@H](O)C(O)C1O)NC(=O)CC=CCCCCCCCCCCCCCCCCCCCCC (some centres not stated) [GlcCer(43:02)]	–
309.76	307.86	–	CCCCCCCCCCCCC=CC[C@@H](O)[C@H](COP(=O)([O-])OCC[N+](C)(C)C)NC(=O)CCCCCCCCCCCCCCCCCCCCCCCCC [SM(44:01)]	–
301.14	299.31	–	CCCCCCCCCCCCC=CC[C@@H](O)[C@H](COP(=O)([O-])OCC[N+](C)(C)C)NC(=O)CCCCCCCCCCCCCCCCCCCCCC [SM(41:01)]	–

Second part, the molecule before the results:

SMILES	collision cross section (N2) ([M+H]+) [Å²]	collision cross section (N2) ([M+Na]+) [Å²]	collision cross section (N2) ([M+2Na-H]+) [Å²]	other results
CCCCCCCCCCCCC=CC[C@@H](O)[C@H](CO[C@@H]1O[C@H](CO)[C@@H](O)C(O)C1O)NC(=O)CCCCCCCCCCCCCCCCCCCCC (some centres not stated) [GlcCer(40:01)]	293.87	296.15	–	collision cross section (N2) ([M+Cl]-): 292.56 Å²; collision cross section (N2) ([M+H-H2O]+): 292.77 Å²; collision cross section (N2) ([M+HCOO]-): 298.16 Å²
CCCCC/C=C\C/C=C\C/C=C\CCCCCCC(=O)O[C@H](COC(=O)CCCCCCC/C=C\CCCCCCC)COP(=O)(O)OC[C@H](N)C(=O)O [PS(37:04)]	–	–	285.85	–
CCCCCCCC/C=C\CCCCCCCC(=O)O[C@H](COC(=O)CCCCCCCCCCCCCCCCC)COP(=O)(O)O [PA(36:01)]	–	273.4	274.66	–
CCCCC/C=C\C/C=C\C/C=C\CCCCCCC(=O)O[C@H](COC(=O)CCCCCCC/C=C\C/C=C\CCCCC)COP(=O)(O)OC[C@H](N)C(=O)O [PS(38:05)]	281.67	–	285.68	collision cross section (N2) ([M+K]+): 286.6 Å²; collision cross section (N2) ([M-H]-): 283.69 Å²
CCCCCCCCCCCCC=CC[C@@H](O)[C@H](CO[C@@H]1O[C@H](CO)[C@@H](O)C(O)C1O)NC(=O)CCCCCCCCCCCCCCCCCCCCCCCCC (some centres not stated) [GlcCer(44:01)]	306.44	307.93	–	–
CCCCCCCCCCCCC=CC[C@@H](O)[C@H](CO[C@@H]1O[C@H](CO)[C@@H](O)C(O)C1O)NC(=O)CCCCCCCCCCCCCCCCCCCCCCC (some centres not stated) [GlcCer(42:01)]	300.59	301.76	–	collision cross section (N2) ([M+Cl]-): 298.88 Å²; collision cross section (N2) ([M+H-H2O]+): 298.36 Å²; collision cross section (N2) ([M+HCOO]-): 302.85 Å²
CCCCCCCCCCCCCCCC(=O)N[C@@H](CO[C@@H]1O[C@H](CO)[C@@H](O)C(O)C1O)[C@H](O)CCCCCCCCCCCCCCC (some centres not stated) [GlcCer(34:00)]	–	280.92	–	–
CCCCC/C=C\C/C=C\C/C=C\CCCCCCC(=O)O[C@H](COC(=O)CCCCCCC/C=C\CCCCCCCC)COP(=O)(O)OC[C@H](N)C(=O)O [PS(38:04)]	284.44	–	288.75	collision cross section (N2) ([M+K]+): 289.37 Å²; collision cross section (N2) ([M-H]-): 285.11 Å²
CCCCCCCCCCCCC=CC[C@@H](O)[C@H](CO[C@@H]1O[C@H](CO)[C@@H](O)C(O)C1O)NC(=O)CC=CCC=CCCCCCCCCCCCCCCCCCCCCCC (some centres not stated) [GlcCer(47:03)]	–	–	–	collision cross section (N2) ([M+H-2H2O]+): 307.66 Å²
CCCCCCCCCCCCC=CC[C@@H](O)[C@H](CO)NC(=O)CCCCCCCCCCCCCCCCCCC [Cer(38:01)]	–	–	–	collision cross section (N2) ([M+H-H2O]+): 263.93 Å²
CCCCCCCCCCCCC=CC[C@@H](O)[C@H](CO)NC(=O)CCCCCCCCCCCCCCCCCCCCC [Cer(40:01)]	–	–	–	collision cross section (N2) ([M+H-H2O]+): 269.41 Å²
CCCC/C=C\CCCCCCCC(=O)OC[C@H](COP(=O)(O)O)OC(=O)CCCCCCCCC/C=C\CCCCCCCCCC [PA(36:02)]	–	272.25	273.1	–
CCCCCCCC/C=C\CCCCCCCCCCCC(=O)O[C@H](COC(=O)CCCCCCCCCCCCCCC)COP(=O)(O)OCCN [PE(38:01)]	–	285.93	–	–
CC/C=C\C/C=C\C/C=C\C/C=C\C/C=C\CCCC(=O)O[C@H](COC(=O)CCCCCCC/C=C\CCCCCCCC)COP(=O)([O-])OCC[N+](C)(C)C [PC(38:06)]	–	–	–	collision cross section (N2) ([M+Cl]-): 296.13 Å²; collision cross section (N2) ([M+HCOO]-): 295.99 Å²
CC/C=C\C/C=C\C/C=C\C/C=C\CCCCC(=O)O[C@H](COC(=O)CCCCCCC/C=C\CCCCCCCC)COP(=O)(O)OCCN [PE(36:05)]	–	–	–	collision cross section (N2) ([M+K]+): 274.4 Å²
CCCCCCCCCCCCC=CC[C@@H](O)[C@H](CO[C@@H]1O[C@H](CO)[C@@H](O)C(O)C1O)NC(=O)CCCCCCCCCCCCCCCCCC (some centres not stated) [GlcCer(37:01)]	–	287.43	–	–
CCCCCCCCCCCCCCCCCCCC(=O)N[C@@H](CO[C@@H]1O[C@H](CO)[C@@H](O)C(O)C1O)[C@H](O)CCCCCCCCCCCCCCC (some centres not stated) [GlcCer(38:00)]	290.18	291.27	–	–
CCCCC/C=C\C/C=C\C/C=C\C/C=C\CCCCCC(=O)O[C@H](COC(=O)CCCCCCCCC/C=C\C/C=C\CCCCC)COP(=O)(O)OC[C@H](N)C(=O)O [PS(42:06)]	–	–	297.48	–
CCCCCCCCCCCCC=CC[C@@H](O)[C@H](CO)NC(=O)CCCCCCCCCCCCCCCCCCCCCCC [Cer(42:01)]	277.56	–	–	collision cross section (N2) ([M+H-2H2O]+): 273.88 Å²; collision cross section (N2) ([M+H-H2O]+): 275.06 Å²
CC/C=C\C/C=C\C/C=C\C/C=C\C/C=C\C/C=C\CCC(=O)O[C@H](COC(=O)CCCCCCCCC/C=C\CCCCCCCC)COP(=O)(O)OCCN [PE(42:07)]	–	–	–	collision cross section (N2) ([M+K]+): 291.12 Å²
CCCCCCCCCCCCCCCCCC(=O)OC[C@H](COP(=O)(O)OC[C@H](N)C(=O)O)OC(=O)CCCCCCCCCCCCCCCCC [PS(36:00)]	–	–	–	collision cross section (N2) ([M-H]-): 284.03 Å²
CCCCCCCCCC/C=C\CCCCCCCCCC(=O)O[C@H](COC(=O)CCCCCCCCCCCCCC)COP(=O)(O)OC[C@H](N)C(=O)O [PS(37:01)]	–	–	293.47	–
CCCCCCCCCCCCC=CC[C@@H](O)[C@H](CO)NC(=O)CCCCCCCCCCCCCCCCCCCCCC [Cer(41:01)]	–	–	–	collision cross section (N2) ([M+H-H2O]+): 272.16 Å²
CCCCCCCCCCCCC=CC[C@@H](O)[C@H](CO[C@@H]1O[C@H](CO)[C@@H](O)C(O)C1O)NC(=O)CCCCCCCCCCCCCCCCC (some centres not stated) [GlcCer(36:01)]	282.43	284	–	collision cross section (N2) ([M+Cl]-): 284.18 Å²; collision cross section (N2) ([M+H-H2O]+): 279.86 Å²; collision cross section (N2) ([M+HCOO]-): 287.29 Å²
CC/C=C\C/C=C\C/C=C\C/C=C\C/C=C\C/C=C\CCC(=O)OC[C@H](COP(=O)(O)OC[C@H](N)C(=O)O)OC(=O)CCCCCCCCCCCCCCCCCC [PS(41:06)]	–	–	296.18	–
